The source of these data is patent publication US20240101510A1, “APYRASE INHIBITORS” (Texas Crop Science, priority 2022, published 2024).

For experiment [1], the system named is apyrase. As to the kind of experiment: In vitro apyrase assay (screen for apyrase inhibitors, phosphate release read at 630 nm). It counts as biochemical. The settings on record: inhibitor conc at 1 mM; 1 hr at room temperature; rounded average of two assay results. Here is the method: Method 1: In Vitro Apyrase Assay: Apyrase inhibitors useful as enhancers of pesticidal activity are assessed using an in vitro assay. The method of Windsor, Bio Techniques 33:1024-1030 (November 2002) was used as follows: Screen for Apyrase Inhibitors - 96 well plates were used for the assay: (Greiner bio-one: REF-655901-96 well, PS, F-bottom, Clear, Non-binding) Buffers: • Reaction Buffer: 60 mM Hepes; 3 mM MgCl2, 3 mM CaCl2 and 3 mM ATP (pH 6.5) • Development Buffer A: 2% aqueous ammonium molybdate • Development Buffer B: 11% ascorbic acid in 37.5% TCA in water • Stop buffer C: 2% trisodium citrate in 2% acetic acid solution in water • Add 100 μl of reaction buffer to each well. • Add […] (control) or inhibitor/compound or compounds such as […] or orthovanadate to each well. […] A blank cell indicates either <10% observed inhibition or a large difference between repetitions. In certain examples, the lack of observed inhibition is due to a lack of solubility of the compound under assay conditions, rather than a lack of apyrase inhibitory activity. Roux compound 15 inhibited apyrase in this assay at about 60%.

Experiment [2] relates to Microdochium nivale. Nature of the experiment: In vitro assessment of combination activity with fungicides on agar.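 Note: scored as inactive or active or highly active.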 It counts as cell-based. Conditions: fungicide at a rate just below that giving any control; visual assessment of % control. The protocol:
(§1) Method 2: In Vitro Assessment of Combination Activity
(§2) Selected compounds were assessed in combination with fungicides against a range of commercially important plant pathogenic fungi.
(§3) The test was conducted as follows. A fungicide was applied to a fungal plant pathogen at a rate slightly below that at which it gave any control, in combination with a suitable dose of the test compound. The test compound was recorded as active if control of the pathogen was observed.
(§4) In more detail, the test was conducted as follows. For each combination of fungicide, pathogen and test compound, the following wells were used. Well 1 contained a fungal pathogen growing on agar, and a fungicide at a rate just below that at which it gave any control of the pathogen. Well 2 was the same as Well 1, except that the test compound was also added at Rate 1. Well 3 was the same as Well 2, except that the test compound was added at Rate 2, where Rate 2 was higher than Rate 1. Finally, as a benchmark, Well 4 was the same as Well 1, except that it contained the fungicide at a higher rate, at which it gave partial control of the pathogen. Each of the Wells 1 to 4 were run in duplicate, giving a total of 8 wells for each combination of fungicide, pathogen and test compound. For each well, after a suitable period of incubation, a visual assessment of the % control of the pathogen by the fungicide was made.
(§5) The following fungicides were used in this assay: azoxystrobin, fluxapyroxad, and desthio prothioconazole. The following fungal pathogens were used in this assay. First, a strain of Zymoseptoria tritici with a reduced susceptibility to strobilurin fungicides; second a strain of Zymoseptoria tritici with a reduced susceptibility to SDHI fungicides (i.e., those that inhibit succinate dehydrogenase); and third, Microdochium nivale.

In experiment [3] the test system is Zymoseptoria tritici with a reduced susceptibility to SDHI fungicides. The description is as above. Format: cell-based. Conditions: fungicide at a rate just below that giving any control; visual assessment of % control. Here is the method: as §1, §2, §3, §4, §5;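 note: scored as inactive or active or highly active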
Experiment [4] has as its system Zymoseptoria tritici with a reduced susceptibility to strobilurin fungicides. The experiment is described as above. Format: cell-based. The settings on record: fungicide at a rate just below that giving any control; visual assessment of % control. The protocol: as §1, §2, §3, §4, §5;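 note: scored as inactive or active or highly active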
The subject of experiment [5] is Zymoseptoria tritici on wheat. As to the kind of experiment: Greenhouse crop test in combination with commercial fungicide. It counts as in vivo. The settings on record: test compound at 20 ppm. The protocol:
(§6) Method 3: Greenhouse Crop Tests
(§7) In this method, exemplary compounds were evaluated for their ability to control Zymoseptoria tritici on wheat, Botrytis cinerea on tomatoes, Asian Soya Rust (Phakopsora pachyrhizi) on soybean, and Brown Rust (Puccinia recondita) on wheat, in a controlled greenhouse environment in combination with one of four fungicides, Amistar, Imtrex, Proline or Balaya. In these studies, soybean cultivar Siverka, tomato (Money maker) and wheat plants (JB Diego) were used. Seeds were sown in 9 cm diameter pots to a depth of 1 to 2 cm using Petersfield potting compost (75% medium grade peat, 12% screened sterilized loam, 3% medium grade vermiculite, 10% grit (5 mm screened, lime free), 1.5 kg PG mix per m3, lime to pH5.5-6.0 and wetting agent (Vitax Ultrawet 200 ml per m3) and germinated/grown at 23° C. under a 16 h day/8 h night light regime. Plants were treated two to three weeks after sowing when they were at the BBCH 11 growth stage (first pair of true leaves (unifoliate) unfolded. A track sprayer was used to treat the plants with the mixture of commercial fungicide and test compound using a water volume of 200 L/ha. Plants were inoculated with the appropriate fungi (pathogen) 24 hours after treatment. Fungal pathogens used were Botrytis cinerea (Grey mold on tomato plants), Zymoseptoria tritici (Septoria leaf blotch on wheat plants), Puccinia triticina (Brown rust on wheat plants) and Phakopsora pachyrhyzi (Asian soy rust on soybean plants). Four replicates were used for each combination of fungicide, pathogen and test compound. Each plant was evaluated once the disease symptoms were fully expressed between seven to twenty days (depending on the pathogen) for % control of the disease. Appropriate controls were used for all experiments, including an ‘inoculation check’ wherein plants were inoculated with their specific pathogen to assess disease levels. Also, each commercial fungicide was tested on its own as a part of each treatment, this being benchmark against which the experimental compounds were evaluated. […] That is, the present compounds, although not fungicidal by themselves, enhance the activity of fungicides.
(§8) In these studies the fungicide was applied at the following rates

Experiment [6] concerns Asian Soya Rust (Phakopsora pachyrhizi) on soybean. The experiment is described as above. Format: in vivo. Conditions: test compound at 20 ppm. The protocol: as §6, §7, §8
The subject of experiment [7] is Brown Rust (Puccinia recondita) on wheat. The experiment is described as above. It counts as in vivo. Conditions: Imtrex 0.35 L/ha; test compound at 20 ppm. The protocol: as §6, §7, §8
Experiment [8] concerns Botrytis cinerea on tomatoes. The experiment is described as above. Format: in vivo. The settings on record: test compound at 20 ppm. Here is the method: as §6, §7, §8
Setting [9] is: Balaya 0.0015 L/ha, compared to Balaya alone or with Roux Compound 15 at 30 ppm.

On to `C/C(=N\NC(=O)c1cccc(NS(C)(=O)=O)c1)c1ccc2ccccc2c1` [I-214, (E)-N-(3-(2-(1-(naphthalen-2-yl)ethylidene)hydrazine-1-carobnyl)phenyl)methanesulfonamide], for which the “% Inhibition of Apyrase” value in experiment [1] is 55%. Further, the “activity in combination with fluxapyroxad” value in experiment [2] is given as “significant activity”. Besides, the “activity in combination with desthio prothioconazole” value in experiment [3] and in experiment [4] was “significant activity” in each case. In experiment [5] (Amistar 0.1 L/ha, compared to Amistar alone or with Roux Compound 15 at 30 ppm), the “control of Zymoseptoria tritici by Amistar in combination with test compound” value was “notably superior control”. Besides, in experiment [5] (setting [9]), the “control of Zymoseptoria tritici by Balaya in combination with test compound” value is recorded as “notably superior control”. The “control of Zymoseptoria tritici by Imtrex in combination with test compound” value in experiment [5] (Imtrex 0.02 L/ha, similar to Imtrex with Roux Compound 15 at 15 and 30 ppm) was “superior control to Imtrex or Proline alone”. Also, in experiment [5] (Proline 0.0075 L/ha, compared to Proline alone and with Roux Compound 15), the “control of Zymoseptoria tritici by Proline in combination with test compound” value is on record as “superior control to Imtrex or Proline alone”. In addition, in experiment [6] (Amistar 0.02 L/ha), the “activity of Amistar against Asian Soybean Rust with addition of test compound” value is “substantially enhanced”. Moreover, the “activity of Balaya against Asian Soybean Rust with addition of test compound” value in experiment [6] (Balaya 0.03 L/ha) is reported as “substantially enhanced”. The “activity of Proline against Asian Soybean Rust with addition of test compound” value in experiment [6] (Proline 0.15 L/ha) is recorded as “substantially enhanced”. Further, in experiment [7], the “activity of Imtrex against Brown Rust with addition of test compound” value is given as “substantially enhanced”. For the same compound, in experiment [8] (setting [9]), the “control of Botrytis by Balaya in combination with test compound” value was “notably superior control”. Further, the “control of Botrytis by Imtrex in combination with test compound” value in experiment [8] (Imtrex 0.005 L/ha, compared to Imtrex alone or with Roux Compound 15 at 30 ppm) is given as “notably superior control”.
